What was measured:
Assay in all cases: combination Emax (second highest fraction inhibited in the dose matrix, 72 h); higher = more inhibition; extreme values may be limits of the assay
LN-18 (Glioblastoma) = test system: LN-18 (Glioblastoma)
Summary of the method: (§1)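 After 24 hours at 37°C and 5% CO2 in 1536-well plates, cells in DMEM/F12 or RPMI plus 10% FBS received two-drug dose matrices for 72 hours. Viability came from CellTiter-Glo 2.0 luminescence and was scaled as inhibition, anchored at 0 by vehicle wells and at 1 by blank wells. Combination Emax is taken as the second-highest inhibition in the matrix, and Bliss excess as the observed combination effect less EA + EB − EA·EB, with EA and EB the single-agent effects.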

[1] = test system: DiFi (Colorectal Carcinoma)
Summary of the method: as §1

[2] = test system: SW837 (Colorectal Carcinoma)
Summary of the method: as §1

[3] = test system: SR (Other Blood Carcinomas)
Summary of the method: as §1

[4] = test system: GR-ST (B-Lymphoblastic Leukemia)
Summary of the method: as §1

[5] = test system: TE-6 (Esophageal Squamous Cell Carcinoma)
Summary of the method: as §1

MEL-JUSO (Melanoma) = test system: MEL-JUSO (Melanoma)
Summary of the method: as §1

[6] = test system: SW1417 (Colorectal Carcinoma)
Summary of the method: as §1

[7] = test system: L-540 (Hodgkin's Lymphoma)
Summary of the method: as §1

[8] = test system: MFM-223 (Breast Carcinoma)
Summary of the method: as §1

[9] = test system: HL-60 (Acute Myeloid Leukemia)
Summary of the method: as §1

[10] = test system: SU-DHL-8 (B-Cell Non-Hodgkin's Lymphoma)
Summary of the method: as §1

ES8 (Ewing's Sarcoma) = test system: ES8 (Ewing's Sarcoma)
Summary of the method: as §1

TC-71 (Ewing's Sarcoma) = test system: TC-71 (Ewing's Sarcoma)
Summary of the method: as §1

[11] = test system: NCI-H847 (Small Cell Lung Carcinoma)
Summary of the method: as §1

[12] = test system: TOV-112D (Ovarian Carcinoma)
Summary of the method: as §1

ES1 (Ewing's Sarcoma) = test system: ES1 (Ewing's Sarcoma)
Summary of the method: as §1

[13] = test system: MOLT-16 (T-Lymphoblastic Leukemia)
Summary of the method: as §1

[14] = test system: MS751 (Cervical Carcinoma)
Summary of the method: as §1

[15] = test system: KARPAS-45 (T-Lymphoblastic Leukemia)
Summary of the method: as §1

For `CCN(CCO)CCCOc1ccc2c(Nc3cc(CC(=O)Nc4cccc(F)c4)[nH]n3)ncnc2c1` [AZD2811] + C=CCn1c(=O)c2cnc(Nc3ccc(N4CCN(C)CC4)cc3)nc2n1-c1cccc(C(C)(C)O)n1 [AZD1775] (first compound max 1 µM, partner max 1 µM), the “combination Emax” value (LN-18 (Glioblastoma)) was 0.458, the “combination Emax” value [1] was 0.671 and the “combination Emax” value [2] was 0.15. For the same compound, the “combination Emax” value [3] was 0.991, the “combination Emax” value [4] was 0.789 and the “combination Emax” value [5] was 0.236. The “combination Emax” value (MEL-JUSO (Melanoma)) was 0.333, the “combination Emax” value [6] was 0.412 and the “combination Emax” value [7] was 0.916. For the same compound, the “combination Emax” value [8] was 0.56, the “combination Emax” value [9] was 0.845 and the “combination Emax” value [10] was 0.929. For the same compound, the “combination Emax” value (ES8 (Ewing's Sarcoma)) was 1, the “combination Emax” value (TC-71 (Ewing's Sarcoma)) was 0.857 and the “combination Emax” value [11] was 1. For the same compound, the “combination Emax” value [12] was 0.712, the “combination Emax” value (ES1 (Ewing's Sarcoma)) was 0.779 and the “combination Emax” value [13] was 1. For the same compound, the “combination Emax” value [14] was 0.599 and the “combination Emax” value [15] was 0.936.
With `CCN(CCO)CCCOc1ccc2c(Nc3cc(CC(=O)Nc4cccc(F)c4)[nH]n3)ncnc2c1` [AZD2811] + O=C(c1cc(Cc2n[nH]c(=O)c3ccccc23)ccc1F)N1CCN(C(=O)C2CC2)CC1 [Olaparib] (first compound max 1 µM, 7x7, partner max 10 µM) the “combination Emax” value (LN-18 (Glioblastoma)) was 0.287, the “combination Emax” value [1] was 0.516 and the “combination Emax” value [2] was 0.183. For the same compound, the “combination Emax” value [3] was 0.875, the “combination Emax” value [4] was 0.448 and the “combination Emax” value [5] was 0.212. For the same compound, the “combination Emax” value (MEL-JUSO (Melanoma)) was 0.243, the “combination Emax” value [6] was 0.109 and the “combination Emax” value [7] was 0.509. The “combination Emax” value [8] was 0.274, the “combination Emax” value [9] was 0.83 and the “combination Emax” value [10] was 0.738. For the same compound, the “combination Emax” value (ES8 (Ewing's Sarcoma)) was 0.997, the “combination Emax” value (TC-71 (Ewing's Sarcoma)) was 0.755 and the “combination Emax” value [11] was 0.956. The “combination Emax” value [12] was 0.394, the “combination Emax” value (ES1 (Ewing's Sarcoma)) was 0.855 and the “combination Emax” value [13] was 1. For the same compound, the “combination Emax” value [14] was 0.243 and the “combination Emax” value [15] was 0.882.
For `CC1(C)CCC(CN2CCN(c3ccc(C(=O)NS(=O)(=O)c4ccc(NCC5CCOCC5)c([N+](=O)[O-])c4)c(Oc4cnc5[nH]ccc5c4)c3)CC2)=C(c2ccc(Cl)cc2)C1` [Venetoclax] + CN(C)CCCOc1ccc(-c2ccc3ncc4c(c3c2)n(C2CCOCC2)c(=O)n4C)cn1 [AZD0156] (first compound max 1 µM, 7x7, partner max 1 µM), the “combination Emax” value (LN-18 (Glioblastoma)) was 0.329, the “combination Emax” value [1] was 0.288 and the “combination Emax” value [2] was 0.145. For the same compound, the “combination Emax” value [3] was 0.907, the “combination Emax” value [4] was 0.704 and the “combination Emax” value [5] was 0.289. The “combination Emax” value (MEL-JUSO (Melanoma)) was 0.233, the “combination Emax” value [6] was 0.266 and the “combination Emax” value [7] was 0.886. For the same compound, the “combination Emax” value [8] was 0.155, the “combination Emax” value [9] was 0.71 and the “combination Emax” value [10] was 0.334. The “combination Emax” value (ES8 (Ewing's Sarcoma)) was 0.869, the “combination Emax” value (TC-71 (Ewing's Sarcoma)) was 0.294 and the “combination Emax” value [11] was 0.378. The “combination Emax” value [12] was 0.131, the “combination Emax” value (ES1 (Ewing's Sarcoma)) was 0.82 and the “combination Emax” value [13] was 0.699. The “combination Emax” value [14] was 0.198 and the “combination Emax” value [15] was 0.478.
With `COc1cccc(OCCCN)c1-c1cc(Nc2cnc(C#N)cn2)n[nH]1` [Prexasertib] + C=CCn1c(=O)c2cnc(Nc3ccc(N4CCN(C)CC4)cc3)nc2n1-c1cccc(C(C)(C)O)n1 [AZD1775] (first compound max 1 µM, partner max 1 µM) the “combination Emax” value (LN-18 (Glioblastoma)) was 0.807, the “combination Emax” value [1] was 0.92 and the “combination Emax” value [2] was 0.79. The “combination Emax” value [3] was 1, the “combination Emax” value [4] was 0.82 and the “combination Emax” value [5] was 0.767. For the same compound, the “combination Emax” value (MEL-JUSO (Melanoma)) was 0.747, the “combination Emax” value [6] was 0.64 and the “combination Emax” value [7] was 0.967. The “combination Emax” value [8] was 0.897, the “combination Emax” value [9] was 0.97 and the “combination Emax” value [10] was 0.964. The “combination Emax” value (ES8 (Ewing's Sarcoma)) was 0.945, the “combination Emax” value (TC-71 (Ewing's Sarcoma)) was 1 and the “combination Emax” value [11] was 1. The “combination Emax” value [12] was 0.815, the “combination Emax” value (ES1 (Ewing's Sarcoma)) was 1 and the “combination Emax” value [13] was 1. For the same compound, the “combination Emax” value [14] was 0.701 and the “combination Emax” value [15] was 1.
In the case of `CC1(C)CCC(CN2CCN(c3ccc(C(=O)NS(=O)(=O)c4ccc(NCC5CCOCC5)c([N+](=O)[O-])c4)c(Oc4cnc5[nH]ccc5c4)c3)CC2)=C(c2ccc(Cl)cc2)C1` [Venetoclax] + CCN(CCO)CCCOc1ccc2c(Nc3cc(CC(=O)Nc4cccc(F)c4)[nH]n3)ncnc2c1 [AZD2811] (first compound max 1 µM, 7x7, partner max 1 µM), the “combination Emax” value (LN-18 (Glioblastoma)) is reported as 0.488, the “combination Emax” value [1] is reported as 0.486 and the “combination Emax” value [2] is reported as 0.2. For the same compound, the “combination Emax” value [3] was 0.946, the “combination Emax” value [4] was 0.648 and the “combination Emax” value [5] was 0.26. For the same compound, the “combination Emax” value (MEL-JUSO (Melanoma)) was 0.287, the “combination Emax” value [6] was 0.209 and the “combination Emax” value [7] was 0.723. The “combination Emax” value [8] was 0.252, the “combination Emax” value [9] was 0.918 and the “combination Emax” value [10] was 0.414. For the same compound, the “combination Emax” value (ES8 (Ewing's Sarcoma)) was 1, the “combination Emax” value (TC-71 (Ewing's Sarcoma)) was 0.88 and the “combination Emax” value [11] was 1. The “combination Emax” value [12] was 0.266, the “combination Emax” value (ES1 (Ewing's Sarcoma)) was 0.759 and the “combination Emax” value [13] was 1. The “combination Emax” value [14] was 0.424 and the “combination Emax” value [15] was 0.96.
For `Cc1c2c(nn1C)CSCc1cc(n(C)n1)CSc1cc(c3ccccc3c1)OCCCc1c(C(=O)O)n(C)c3c-2c(Cl)ccc13` [AZD5991] + Cc1cc2ncnn2cc1Nc1ncc2c(n1)n(C1CCOCC1)c(=O)n2C [AZD7648] (first compound max 1 µM, 7x7, partner max 10 µM), the “combination Emax” value (LN-18 (Glioblastoma)) was 0.35, the “combination Emax” value [1] was 0.319 and the “combination Emax” value [2] was 0.128. The “combination Emax” value [3] was 0.984, the “combination Emax” value [4] was 0.464 and the “combination Emax” value [5] was 0.683. For the same compound, the “combination Emax” value (MEL-JUSO (Melanoma)) was 0.277, the “combination Emax” value [6] was 0.297 and the “combination Emax” value [7] was 1. For the same compound, the “combination Emax” value [8] was 0.288, the “combination Emax” value [9] was 1 and the “combination Emax” value [10] was 0.684. The “combination Emax” value (ES8 (Ewing's Sarcoma)) was 0.455, the “combination Emax” value (TC-71 (Ewing's Sarcoma)) was 0.48 and the “combination Emax” value [11] was 0.877. The “combination Emax” value [12] was 0.492, the “combination Emax” value (ES1 (Ewing's Sarcoma)) was 0.798 and the “combination Emax” value [13] was 1. The “combination Emax” value [14] was 0.829 and the “combination Emax” value [15] was 0.936.

From the supplement of paper PMC11061612
